Source: ChEMBL document CHEMBL3588780, “Quinolyl analogues of norlobelane: novel potent inhibitors of [(3)H]dihydrotetrabenazine binding and [(3)H]dopamine uptake at the vesicular monoamine transporter-2” (Bioorg Med Chem Lett, 2015)

Assays:
[1] = target: T1, Synaptic vesicular amine transporter (Rattus norvegicus, UniProt Q01827); experiment: Inhibition of VMAT2-mediated [3H]DA uptake in rat brain synaptic vesicles by liquid scintillation spectrometry; format: tissue-based
[2] = target: Synaptic vesicular amine transporter (Rattus norvegicus) (UniProt Q01827); experiment: Displacement of [3H]DTBZ from VMAT2 in rat whole brain relative to quinlobelane
[3] = target: T1, Synaptic vesicular amine transporter; experiment: Displacement of [3H]DTBZ from VMAT2 in rat whole brain by liquid scintillation spectrometry
[4] = target: Synaptic vesicular amine transporter (Rattus norvegicus) (UniProt Q01827); experiment: Ratio of Ki for displacement of [3H]DTBZ from VMAT2 in rat whole brain to Ki for inhibition of VMAT2-mediated [3H]DA uptake in rat brain synaptic vesicles; format: tissue-based

T1 sequence (Q01827 whole entry): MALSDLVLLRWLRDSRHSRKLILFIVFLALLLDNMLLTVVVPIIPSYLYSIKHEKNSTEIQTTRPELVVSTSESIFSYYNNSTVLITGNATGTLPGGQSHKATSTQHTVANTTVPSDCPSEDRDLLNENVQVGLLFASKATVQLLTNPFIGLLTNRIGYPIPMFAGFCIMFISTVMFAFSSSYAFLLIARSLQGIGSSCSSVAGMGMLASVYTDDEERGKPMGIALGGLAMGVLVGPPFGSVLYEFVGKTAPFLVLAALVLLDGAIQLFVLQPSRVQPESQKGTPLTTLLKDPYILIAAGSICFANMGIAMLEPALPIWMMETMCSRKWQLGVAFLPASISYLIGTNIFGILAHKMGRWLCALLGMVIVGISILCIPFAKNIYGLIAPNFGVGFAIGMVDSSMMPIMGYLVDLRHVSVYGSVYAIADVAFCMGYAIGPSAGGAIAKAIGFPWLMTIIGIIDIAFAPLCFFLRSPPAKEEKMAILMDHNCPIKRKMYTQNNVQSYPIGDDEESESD
Sequence of Synaptic vesicular amine transporter (Rattus norvegicus) (Q01827 whole entry): as above

Compound	Ki [1] [nM]	Ratio Ki [2]	Ki [3] [nM]	Ratio Ki [4]
OC[C@H](O)CN1[C@@H](CCc2ccc3ccccc3n2)CCC[C@H]1CCc1ccc2ccccc2n1	240	4	627	3
c1ccc2nc(CC[C@H]3CCC[C@@H](CCc4ccc5ccccc5n4)N3)ccc2c1	57	9	293	3
c1ccc2c(CC[C@H]3CCC[C@@H](CCc4ccnc5ccccc45)N3)ccnc2c1	42	–	178	–
c1cnc2ccc(CC[C@H]3CCC[C@@H](CCc4ccc5ncccc5c4)N3)cc2c1	42	4	647	3
